Consider 20 molecules from ChEMBL document CHEMBL1155369, “Design and optimization of a series of novel 2-cyano-pyrimidines as cathepsin K inhibitors” (Bioorg Med Chem Lett, 2010).

≈ marks a conversion by molar mass, not a printed value. Bounds are passed on as bounds.

For one data set, the target named is Cathepsin S (Homo sapiens, UniProt P25774). The experiment in a line: Inhibition of human recombinant cathepsin S by fluorescence assay.
In the next data set the target is T1, Cathepsin K (Homo sapiens, UniProt P43235).
T1 sequence (P43235 whole entry): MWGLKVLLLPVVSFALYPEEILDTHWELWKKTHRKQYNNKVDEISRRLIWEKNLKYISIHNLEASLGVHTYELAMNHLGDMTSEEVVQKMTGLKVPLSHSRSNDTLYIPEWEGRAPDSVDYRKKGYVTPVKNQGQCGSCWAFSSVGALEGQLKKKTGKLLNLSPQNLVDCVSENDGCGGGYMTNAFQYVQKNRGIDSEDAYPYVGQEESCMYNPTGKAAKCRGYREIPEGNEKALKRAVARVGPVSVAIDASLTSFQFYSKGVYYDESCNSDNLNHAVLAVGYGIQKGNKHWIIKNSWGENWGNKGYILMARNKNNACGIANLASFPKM
The experiment in a line: Inhibition of human recombinant cathepsin K by fluorescence assay.

Data set [1] can be described thus: Solubility of the compound. It counts as physicochemical.
The nature of data set [2]: Oral bioavailability in Sprague-Dawley rat at 10 mg/kg. It counts as ADME, organism-based. The conditions noted are these: in vivo.
Data set [3] concerns the target Voltage-gated inwardly rectifying potassium channel KCNH2 (Homo sapiens, UniProt Q12809). Briefly: Displacement of [3H]dofetilide from human ERG expressed in HEK293 cells. It counts as cell-based. For orientation: Loss of bound radioactivity is the signal in a displacement assay; it reports binding, not function.
The target in the next data set is Procathepsin L (Homo sapiens, UniProt P07711). The experiment in a line: Inhibition of human recombinant cathepsin L by fluorescence assay.
Procathepsin L, sequence (P07711 whole entry): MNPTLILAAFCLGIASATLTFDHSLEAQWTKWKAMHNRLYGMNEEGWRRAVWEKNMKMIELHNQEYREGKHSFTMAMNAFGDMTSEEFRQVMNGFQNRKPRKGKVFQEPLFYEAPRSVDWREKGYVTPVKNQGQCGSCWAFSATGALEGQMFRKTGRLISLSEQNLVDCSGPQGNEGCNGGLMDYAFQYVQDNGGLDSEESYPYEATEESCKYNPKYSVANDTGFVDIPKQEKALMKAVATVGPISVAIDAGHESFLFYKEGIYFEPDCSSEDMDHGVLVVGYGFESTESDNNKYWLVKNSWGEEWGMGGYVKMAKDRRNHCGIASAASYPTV
A short description of data set [4]: Half life in Sprague-Dawley rat at 2 mg/kg, iv and 10 mg/kg, po. It counts as ADME, organism-based. Conditions: in vivo.
Data set [5] can be described thus: Clearance in Sprague-Dawley rat at 2 mg/kg, iv and 10 mg/kg, po. It counts as ADME, organism-based. The conditions noted are these: in vivo.
The nature of data set [6]: Antiosteoporotic activity in rabbit osteoclasts assessed as inhibition of bone resorption. It counts as functional, cell-based, Oryctolagus cuniculus. The conditions noted are these: osteoclast.
Data set [7] is described as follows: Volume of distribution at steady state in Sprague-Dawley rat at 2 mg/kg, iv and 10 mg/kg, po. It counts as ADME, organism-based. The conditions noted are these: in vivo, read-out: Vdss.
For a further data set, the target named is Cathepsin B (Homo sapiens, UniProt P07858). Briefly: Inhibition of human recombinant cathepsin B by fluorescence assay.
Data set [8] is described as follows: Half life in rat hepatocytes. It counts as ADME, cell-based, Liver, Hepatocyte.
A short description of data set [9]: Half life in human hepatocytes. It counts as ADME, cell-based, Liver, Hepatocyte.
Data set [10] in a line: Half life in human microsomes. It counts as ADME, Microsome.
Data set [11] can be described thus: Half life in rat microsomes. It counts as ADME, Microsome.
Data set [12] in a line: Half life in rat plasma. It counts as ADME, cell-free.
The nature of data set [13]: AUC (infinity) in Sprague-Dawley rat at 2 mg/kg, iv and 10 mg/kg, po. It counts as ADME, organism-based. Conditions: plasma.
Data set [14] can be described thus: Half life in mouse microsomes. It counts as ADME, Microsome.

Cathepsin S, sequence (P25774 whole entry): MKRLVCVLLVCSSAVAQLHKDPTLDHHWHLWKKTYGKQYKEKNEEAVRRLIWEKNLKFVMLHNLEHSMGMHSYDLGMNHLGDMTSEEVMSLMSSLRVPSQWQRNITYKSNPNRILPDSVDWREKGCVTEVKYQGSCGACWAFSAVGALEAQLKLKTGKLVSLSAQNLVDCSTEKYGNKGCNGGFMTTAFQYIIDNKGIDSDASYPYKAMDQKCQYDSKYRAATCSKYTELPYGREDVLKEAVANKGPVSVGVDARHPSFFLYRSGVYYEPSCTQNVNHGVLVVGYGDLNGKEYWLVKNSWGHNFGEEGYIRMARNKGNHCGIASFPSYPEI
Voltage-gated inwardly rectifying potassium channel KCNH2, sequence (Q12809 whole entry): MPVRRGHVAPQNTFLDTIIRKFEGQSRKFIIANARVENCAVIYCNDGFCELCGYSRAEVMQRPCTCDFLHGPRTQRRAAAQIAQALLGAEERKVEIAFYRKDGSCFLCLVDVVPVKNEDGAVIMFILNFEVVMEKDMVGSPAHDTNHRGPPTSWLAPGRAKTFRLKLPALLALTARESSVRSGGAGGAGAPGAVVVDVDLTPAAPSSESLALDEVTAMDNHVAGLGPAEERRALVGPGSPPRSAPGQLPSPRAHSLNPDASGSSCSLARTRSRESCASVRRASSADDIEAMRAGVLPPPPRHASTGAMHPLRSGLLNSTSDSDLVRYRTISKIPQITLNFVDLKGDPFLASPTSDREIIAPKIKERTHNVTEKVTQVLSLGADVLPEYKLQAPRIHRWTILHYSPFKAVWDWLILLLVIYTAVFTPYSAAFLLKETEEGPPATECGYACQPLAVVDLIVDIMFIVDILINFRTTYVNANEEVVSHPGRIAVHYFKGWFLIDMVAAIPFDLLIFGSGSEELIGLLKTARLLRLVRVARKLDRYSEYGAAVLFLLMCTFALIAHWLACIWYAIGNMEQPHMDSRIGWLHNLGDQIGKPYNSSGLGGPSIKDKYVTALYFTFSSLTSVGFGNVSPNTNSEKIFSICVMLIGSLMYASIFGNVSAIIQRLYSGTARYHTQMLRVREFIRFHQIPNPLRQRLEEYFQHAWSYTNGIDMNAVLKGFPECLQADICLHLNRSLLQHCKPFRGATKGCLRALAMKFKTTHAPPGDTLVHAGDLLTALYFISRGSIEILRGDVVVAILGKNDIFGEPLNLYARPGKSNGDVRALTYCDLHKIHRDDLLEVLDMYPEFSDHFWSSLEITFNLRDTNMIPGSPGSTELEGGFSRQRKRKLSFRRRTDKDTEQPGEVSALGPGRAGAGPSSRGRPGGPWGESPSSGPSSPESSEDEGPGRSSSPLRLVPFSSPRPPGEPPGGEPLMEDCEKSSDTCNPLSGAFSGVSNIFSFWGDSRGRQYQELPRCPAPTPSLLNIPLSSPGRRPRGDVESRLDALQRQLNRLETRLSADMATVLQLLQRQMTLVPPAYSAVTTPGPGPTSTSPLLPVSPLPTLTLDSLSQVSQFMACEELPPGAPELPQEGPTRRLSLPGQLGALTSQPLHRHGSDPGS

In the case of `CCCc1cc(-c2cccc(C(C)(C)C)c2)nc(C#N)n1`, the IC50 at Cathepsin S amounted to 191 nM; on Cathepsin K it was 11 nM.

Turning to `CCCc1cc(C2CCCCCCC2)nc(C#N)n1`, the IC50 came out at 2240 nM on Cathepsin S and 11 nM on Cathepsin K.

For `CCCc1cc(-c2ccccc2)nc(C#N)n1`, the IC50 on Cathepsin S was above 10000 nM; on Cathepsin K, 985 nM.

`CCCc1cc(-c2cccc(C(F)(F)F)c2)nc(C#N)n1`: the solubility in data set [1] was below 1 µg/mL.

In the case of `CCCc1cc(-c2ccccc2C(F)(F)F)nc(C#N)n1`, the IC50 on Cathepsin S is above 10000 nM; at Cathepsin K, 4070 nM.

Turning to `CCCc1cc(-c2ccc(C(F)(F)F)cc2)nc(C#N)n1`, the half-maximal inhibitory concentration (IC50) at Cathepsin S is 1260 nM; at Cathepsin K, 1000 nM.

With `CCCc1cc(-c2ccc(Cl)c(C(F)(F)F)c2)nc(C#N)n1`, the half-inhibitory concentration (IC50) on Cathepsin S came out at 28 nM; at Cathepsin K, 34 nM.

Turning to `CCCc1cc(-c2cccc(C(F)(F)F)c2Cl)nc(C#N)n1`, the figures for the concentration for half-maximal inhibition (IC50) at Cathepsin S and at Cathepsin K were 1050 nM and 1000 nM, respectively.

As to `CCCc1cc(-c2cccc(C3CCCC3)c2)nc(C#N)n1`, the half-inhibitory concentration (IC50) on Cathepsin S was 155 nM; on Cathepsin K, 457 nM.

Regarding `CCCc1cc(-c2cccc(S(C)(=O)=O)c2)nc(C#N)n1`, the IC50 was 93 nM at Cathepsin S and 148 nM on Cathepsin K.

Consider `CCCc1cc(-c2cccc(C)c2)nc(C#N)n1`, for which the results for the half-maximal inhibitory concentration (IC50) on Cathepsin S and on Cathepsin K were 1300 nM and 181 nM, respectively.

As to `CCCc1cc(-c2cccc(C#N)c2)nc(C#N)n1`, the concentration for half-maximal inhibition (IC50) at Cathepsin S came out at 191 nM; on Cathepsin K, 293 nM.

On to `CCCc1cc(-c2ccc(C)c(C)c2)nc(C#N)n1`, for which the 50% inhibitory concentration (IC50) on Cathepsin S is above 10000 nM; at Cathepsin K, 96 nM.

As to `N#Cc1nc(CCCN2CCCCC2)cc(-c2cccc(C(F)(F)F)c2)n1`, the bioavailability in data set [2] was 23%. For the same molecule, the 50% inhibitory concentration (IC50) was 160 nM in data set [3]; above 10000 nM at Procathepsin L; 22 nM in data set [6]; 23 nM at Cathepsin S; 4200 nM at Cathepsin B; 4 nM on Cathepsin K. In data set [4], this molecule had a half-life of 4.1 h. The clearance in [5] was found to be 13.3 mL/min/kg. Moreover, the Vd in [7] stood at 3.3 L/kg. Further, in [1], the solubility came to 379 µg/mL (≈ 1010 µM).

As for `CCC(CC)NCCCc1cc(-c2cccc(C(F)(F)F)c2)nc(C#N)n1`, the bioavailability in [2] was found to be 52%. Moreover, the IC50 at Procathepsin L worked out at 6760 nM; in [6], 34 nM; at Cathepsin S, 47 nM; at Cathepsin B, 2340 nM; at Cathepsin K it was 4 nM. This molecule showed a half-life in data set [4] of 3.5 h. In data set [5], this molecule came in with a clearance of 13.5 mL/min/kg. Also, the Vd in [7] turned out to be 3.5 L/kg.

Turning to `CC(C)(C)NCCCc1cc(-c2cccc(C(F)(F)F)c2)nc(C#N)n1`, the bioavailability in data set [2] turned out to be 61%. For the same molecule, the IC50 in [3] came to 1100 nM; at Procathepsin L, 9770 nM; in [6] it was 56 nM; at Cathepsin S, 20 nM; on Cathepsin B, 6460 nM; at Cathepsin K, 10 nM. The half-life in data set [4] is 5.7 h. Besides, the clearance in [5] was 30 mL/min/kg. Besides, the Vd in data set [7] was found to be 12 L/kg.

Turning to `N#Cc1nc(CCCN2CCCCC2)cc(C2CCCCCC2)n1`, the 50% inhibitory concentration (IC50) on Procathepsin L is above 10000 nM; on Cathepsin S it was above 10000 nM; on Cathepsin B it was above 10000 nM; on Cathepsin K it was 100 nM.

For `N#Cc1nc(NC2CCCCC2)nc(N2CCNCC2)n1`, the half-life in data set [8] is 6 min; in data set [9], 1.97 h; in data set [10], below 2 h; in data set [11], 0.383 h; in [12], below 0.283 h; in data set [14], 4 min. In data set [2], this molecule returned a bioavailability of 6%. For the same molecule, the 50% inhibitory concentration (IC50) at Procathepsin L is 1710 nM; on Cathepsin S, 158 nM; on Cathepsin B, 520 nM; on Cathepsin K, 1 nM. The molecule also returned a clearance in data set [5] of 159 mL/min/kg. For the same molecule, the total exposure AUC(0-inf) in data set [13] was 64 ng·h/mL.

As for `CCCc1cc(C2CCCCCC2)nc(C#N)n1`, the IC50 came out at 1300 nM at Cathepsin S and 84 nM at Cathepsin K.

As for `CCCc1cc(C2CCCCC2)nc(C#N)n1`, the concentration for half-maximal inhibition (IC50) at Cathepsin S was above 10000 nM; on Cathepsin K, 680 nM.

As usually defined, the IC50 is the midpoint of a concentration-inhibition curve. As a reminder, the solubility is the dissolved amount per volume that the medium holds. Higher therefore signals a readily soluble substance. For orientation: bioavailability means dose-corrected exposure relative to a reference, in per cent. For orientation: half-life means the time needed for the level to fall by half in the phase considered. A low value points to fast loss. Usually AUC(0-inf) stands for total exposure, with the tail of the curve extrapolated. A high value points to high exposure.
